According to US6727272B1, “Leflunomide analogs for treating rheumatoid arthritis” (Unitech Pharmaceuticals, Inc., priority 2002, dated 2004):
Read-outs that look alike come from different tables or passages of the source.

System: Carrageenan-stimulated inflammation on the rear left footpad of the rat
Experiment: Carrageenan-induced footpad edema in rats (Edema Rate E% and Inhibition Rate I%)
Format: in vivo, Wistar Albino Rats
Conditions: sc, vs control group edema rate, read-out: percentage inhibition rate (I %)
Procedure: Wistar Albino Rats of 4 to 6 weeks old with weights of 100-150 g were used for the studies.
Weigh 30 mg of λ-carrageenan (Sigma Chemical) powder; add 3 mL of saline to make the 1% carrageenan solution.
Individually weigh 10 mg of each testing compound; add 10 mL of 1% CMC and shake to make the suspension.
In the present invention, Carrageenan was used to stimulate the inflammation on the rear left footpad of the rat. The inflammation on the left footpad of each rat was measured for rats with and without treatment. Treatment includes leflunomide analogs, dexamethasone, ibuprofen, and Malononitrilamide (MNA). Measurements of the inflamation at pre-determined time points were made.
The rats were weighed and divided into three groups: (1) Control Group, (2) Test Group, and (3) Comparison Group. For each compound, 5 rats were used and marked on the tails. Before injecting carrageenan, the volume of each left footpad was measured (V0). Each rat was injected in the back as follows:
(1) Control Group: 1% CMC for Control Group,
(2) Testing Group: testing compound (10 mg/kg each) in 1% CMC, and
(3) Comparison Group: dexamethasone (1.5 mg/kg in 1% CMC), ibuprofen 10 mg/kg in 1% CMC, MNA in 1% CMC.
One hour later, 0.05 mL of 1% carrageenan was injected onto the rear footpad of each rat to initiate the inflammation. Measure the volume of the rear left footpad (Vt) at 0.5, 1, 2, 3, 4, and 5 hours.
The Edema Rate (E%) and the Inhibition Rate (I%) are calculated as follows and the results of the in-vivo studies are summarized in Table 1 and Table 2. [formula]
V0=Volume (mL) of the rear left footpad before the injection of Carrageenan.
Vt=Volume (mL) of the rear left footpad at “t” time after the injection of Carrageenan
Ec=Edema Rate of the, Control Group
Et=Edema Rate of the Testing Group and Comparison Group

Row | SMILES | inhibition in vivo at 10 mg/kg (1 h, 1 hr) | inhibition in vivo at 10 mg/kg (2 h, 2 hr) | inhibition in vivo at 10 mg/kg (3 h, 3 hr) | inhibition in vivo at 10 mg/kg (4 h, 4 hr) | inhibition in vivo at 10 mg/kg (5 h, 5 hr) | further results
1 | Cc1cc(C(=O)Nc2ccccc2)no1 [Compound 5a, N-(Phenyl)-3-carboxamidyl-5-methylisoxazole] | 62.5% | 74.9% | 78.8% | 78.4% | 44.5% | –
2 | Cc1cc(C(=O)Nc2ccccc2Cl)no1 [Compound 5b] | 80.1% | 82.5% | 79.4% | 79% | 77.7% | –
3 | Cc1cc(C(=O)Nc2cccc(Cl)c2)no1 [Compound 5c, N-(3-Chlorophenyl)-3-carboxamidyl-5-methylisoxazole] | 64.4% | 55.3% | 60.6% | 63.8% | 61.1% | –
4 | Cc1cc(C(=O)Nc2ccc(Cl)cc2)no1 [Compound 5d, N-(4-Chlorophenyl)-3carboxamidyl-5-methyisoxazole] | 70.2% | 72.8% | 77.6% | 77.8% | 76% | –
5 | Cc1cc(C(=O)Nc2cccc(C(F)(F)F)c2)no1 [Compound 5e, N-(3-Trifluoromethyl)-3-carboxamidyl-5-methylisoxazole] | 26% | 41.7% | 40.7% | 44% | 46.8% | –
6 | Cc1cc(C(=O)Nc2ccc(C(F)(F)F)cc2)no1 [Compound 5f, N-(4-Trifluoromethylphenyl)3-carboxamidyl-5-methylisoxazole] | 46.2% | 53.8% | 54.6% | 58.4% | 58.3% | –
7 | Cc1cc(C(=O)Nc2ccc(Cl)cc2Cl)no1 [Compound 5g, N-(2,4-Dichlorophenyl)-3carboxamidyl-5-methylisoxazole] | 79.3% | 83.1% | 77.4% | 79% | 78% | –
8 | COc1ccc(NC(=O)c2cc(C)on2)cc1 [Compound 5h, N-(4-Methoxyphenyl)-3carboxamidyl-5-methylisoxazole] | 24% | 18.9% | 41.6% | 44.3% | 43.1% | –
9 | COc1cc(NC(=O)c2cc(C)on2)cc(OC)c1OC [Compound 5i, N-(3,4,5-Trimethoxyphenyl)-3-carboxamidyl-5-methylisoxazole] | 6.7% | 34% | 39.1% | 42.7% | 42.5% | –
10 | Cc1cc(C(=O)Nc2ccc(C(=O)O)cc2)no1 [Compound 5j, 4-[(5-Methylisoxazole-3-carbonyl)-amino]-benzoic acid] | 50.5% | 46.7% | 56.2% | 58.3% | 57.4% | –
11 | Cc1cc(C(=O)Nc2ccc(F)cc2)no1 [Compound 5k, N-(4-Fluorophenyl)-3-carboxamidyl-5-methylisoxazole] | 46.2% | 17.5% | 38.7% | 43.5% | 43.7% | –
12 | C[C@@H]1C[C@H]2[C@@H]3CCC4=CC(=O)C=C[C@]4(C)[C@@]3(F)[C@@H](O)C[C@]2(C)[C@@]1(O)C(=O)CO [Dexamethasone, reference compound] | – | – | – | – | – | inhibition in vivo at 1.5 mg/kg (1 h, 1 hr): 73.6%; inhibition in vivo at 1.5 mg/kg (2 h, 2 hr): 64.5%; inhibition in vivo at 1.5 mg/kg (3 h, 3 hr): 65.8%; inhibition in vivo at 1.5 mg/kg (4 h, 4 hr): 66.5%; inhibition in vivo at 1.5 mg/kg (5 h, 5 hr): 66.4%
13 | CC(C)Cc1ccc(C(C)C(=O)O)cc1 (stereo not drawn) [Ibuprofen, reference compound] | 9.1% | 21.6% | 45.9% | 44.4% | 38% | inhibition in vivo at 20 mg/kg (1 h, 1 hr): 20.8%; inhibition in vivo at 30 mg/kg (1 h, 1 hr): 65.4%; inhibition in vivo at 20 mg/kg (2 h, 2 hr): 43.2%; inhibition in vivo at 30 mg/kg (2 h, 2 hr): 67.8%; inhibition in vivo at 20 mg/kg (3 h, 3 hr): 55.7%; inhibition in vivo at 30 mg/kg (3 h, 3 hr): 79.7%; inhibition in vivo at 20 mg/kg (4 h, 4 hr): 55.1%; inhibition in vivo at 30 mg/kg (4 h, 4 hr): 74.9%; inhibition in vivo at 20 mg/kg (5 h, 5 hr): 51.6%; inhibition in vivo at 30 mg/kg (5 h, 5 hr): 53%
14 | Cc1oncc1C(=O)Nc1ccc(C(F)(F)F)cc1 [Leflunomide, N-(4-trifluoromethylphenyl)-4-carboxamidyl-5-methylisoxazole] | 28.4% | 34.3% | 55% | 47.8% | 46% | inhibition in vivo at 5 mg/kg (1 h, 1 hr): 3.8%; inhibition in vivo at 20 mg/kg (1 h, 1 hr): 45.7%; inhibition in vivo at 5 mg/kg (2 h, 2 hr): 19.5%; inhibition in vivo at 20 mg/kg (2 h, 2 hr): 50%; inhibition in vivo at 5 mg/kg (3 h, 3 hr): 41%; inhibition in vivo at 20 mg/kg (3 h, 3 hr): 60.4%; inhibition in vivo at 5 mg/kg (4 h, 4 hr): 38.6%; inhibition in vivo at 20 mg/kg (4 h, 4 hr): 60.3%; inhibition in vivo at 5 mg/kg (5 h, 5 hr): 38.3%; inhibition in vivo at 20 mg/kg (5 h, 5 hr): 57.4%
